Measured values reported in US6352988B2, “Indane or dihydroindole derivatives” (H. Lundbeck A/S, priority 1996, dated 2002).
Where a name gives a salt, the structure may show the parent alone.

Columns and labels:
[1] = biological target: T1, dopamine D4 receptors in cloned human dopamine receptor subtype 4.2 membranes (Homo sapiens, UniProt P21917, DEL271-302); experiment: 3H-YM-09151-2 binding (affinity for dopamine D4 receptors); conditions: 3H-YM-09151-2, cloned human D4.2 membranes; * means that the test result is preliminary; read-out: D4-bind. IC50
T1 sequence (P21917 with tags, fused parts or gaps DEL271-302): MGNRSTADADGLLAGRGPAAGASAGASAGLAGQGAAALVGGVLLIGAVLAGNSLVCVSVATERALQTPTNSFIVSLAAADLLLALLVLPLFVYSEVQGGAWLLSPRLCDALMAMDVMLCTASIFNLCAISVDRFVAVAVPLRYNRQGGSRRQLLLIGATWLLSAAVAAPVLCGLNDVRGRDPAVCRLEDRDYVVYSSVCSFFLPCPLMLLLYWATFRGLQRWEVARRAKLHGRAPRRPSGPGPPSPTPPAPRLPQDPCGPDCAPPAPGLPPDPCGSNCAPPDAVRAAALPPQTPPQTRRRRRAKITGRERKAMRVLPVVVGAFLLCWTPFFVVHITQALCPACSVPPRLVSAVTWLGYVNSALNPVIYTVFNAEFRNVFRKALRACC
Method: By this method the inhibition by drugs of the binding of the dopamine D4 antagonist ^3H-YM-09151-2 to dopamine D4 receptors in cloned human dopamine receptor subtype 4.2 membranes is determined in vitro. Accordingly, this is a test for affinity for dopamine D4 receptors. The test is performed using a preparation of cloned dopamine D4 cell membranes CRM-016®, Dupharma A/S, Denmark, in accordance with the product specifications.

SMILES	melting point	IC50 [1]
CC(C)Oc1cccc2c1CC(CN1CCC(c3c[nH]c4cc(Cl)ccc34)CC1)C2 (centres unmarked) (as salt: oxalate)	119 to 126 °C	
c1ccc2c(c1)CC(CN1CCC(c3c[nH]c4cc5c(cc34)OCO5)CC1)C2 [Compound 21e, 3-[1-(Indan-2-ylmethyl)piperidin-4-yl]-5,6-methylenedioxy-1H-indole]	187 to 188 °C	23 nM
CC(C)Oc1cccc2c1CC(CN1CCC(c3c[nH]c4ccc(F)cc34)CC1)C2 (centres unmarked) (as salt: oxalate)	181 to 189 °C	
Clc1ccc2c(C3CCN(CCCCC4Cc5ccccc5C4)CC3)c[nH]c2c1 [Compound 21h, 6-Chloro-3-[1-[4-(indan-2-yl)butan-1-yl]piperidin-4-yl]-1H-indole]	139 to 140 °C	14 nM
CC(=O)Nc1ccc2c(c1)C(CCCN1CC=C(c3c[nH]c4cc(Cl)ccc34)CC1)CC2 (centres unmarked) (as salt: oxalate) [Compound 18d, 6-Chloro-3-[1-[3-(6-acetylaminoindan-1-yl)propan-1-yl]-1,2,3,6-tetrahydropyridin-4-yl]-1H-indole]	110 to 115 °C	
Clc1ccc2c(C3=CCN(CCCCC4CCc5ccccc54)CC3)c[nH]c2c1 (centres unmarked) (as salt: oxalate) [Compound 8h]	191 to 192 °C	
Clc1ccc2c(C3=CCN(CC4Cc5ccccc5C4)CC3)c[nH]c2c1Cl [Compound 11d, 6,7-Dichloro-3-[1-(indan-2-yl)methyl-1,2,3,6-tetrahydropyridin-4-yl]-1H-indole]	151 to 152 °C	27 nM
C1=C(c2c[nH]c3cc4c(cc23)OCO4)CCN(CC2Cc3ccccc3C2)C1 [Compound 11e, 3-[1-(Indan-2-yl)methyl-1,2,3,6-tetrahydropyridin-4-yl]-5,6-methylenedioxy-1H-indole]	192 to 193 °C	16 nM
Clc1ccc2c(C3CCN(CCCC4Cc5ccccc5C4)CC3)c[nH]c2c1 [Compound 21g, 6Chloro-3-[1-[3-(indan-2-yl)propan-1-yl]piperidin-4-yl]-1H-indole]	134 to 135 °C	7.2 nM
Clc1ccc2c(C3=CCN(CCC4Cc5ccccc5C4)CC3)c[nH]c2c1 [Compound 11g, 6-Chloro-3-[1-[2-(indan-2-yl)ethyl]-1,2,3,6-tetrahydropyridin-4-yl]-1H-indole]	217 to 218 °C	12 nM
CC(=O)Nc1ccc2c(c1)CCC2CN1CC=C(c2c[nH]c3cc(Cl)ccc23)CC1 (centres unmarked) (as salt: fumarate) [Compound 6d, 6-Chloro-3-[1-(5-acetylamino-1-indanylmethyl)-1,2,3,6-tetrahydropyridin-4-yl]-1H-indole]	241 to 242 °C	
Clc1cccc2c(C3=CCN(CC4Cc5ccccc5C4)CC3)c[nH]c12 (as salt: oxalate) [Compound 11c, 7-Chloro-3-[1-(indan-2-yl)methyl-1,2,3,6-tetrahydropyridin-4-yl]-1H-indole]	135 to 136 °C	
c1ccc2c(c1)CC(CN1CCC(c3c[nH]c4ccccc34)CC1)C2 [Compound 21b, 3-[1-(indan-2-ylmethyl)piperidin-4-yl]-1H-indole]	146 to 147 °C	2.1 nM
C1=C(c2cc3ccccc3[nH]2)CCN(CCC2Cc3ccccc3C2)C1 [Compound 28c, 2-[1-[2-(Indan-2-yl)ethyl]-1,2,3,6-tetrahydropyridin-4-yl]-1H-indole]	175 to 176 °C	13 nM
Clc1ccc2c(C3CCN(CCCCC4CCc5ccccc54)CC3)c[nH]c2c1 (centres unmarked) (as salt: oxalate) [Compound 8f, 6-Chloro-3-[1-[4-(indan-1-yl)butan-1-yl)-piperidin-4-yl]-1H-indole]	206 to 208 °C	
c1ccc2c(c1)CC(CCN1CCC(n3ccc4ccccc43)CC1)C2 [Compound 29b, 1-[1-[2-(Indan-2-yl)ethyl]piperidin-4-yl]-1H-indole]	80 to 81 °C	2.2 nM

SMILES	melting point	IC50 [1]
CC(=O)Nc1ccc2c(c1)C(CCCCN1CC=C(c3c[nH]c4cc(Cl)ccc34)CC1)CC2 (centres unmarked) (as salt: oxalate) [Compound 18e, 6-Chloro-3-[1-[4-(6-acetylaminoindan-1-yl)butan-1-yl]-1,2,3,6-tetrahydropyridin-4-yl]-1H-indole]	125 to 128 °C	
C1=C(n2ccc3ccccc32)CCN(CCC2Cc3ccccc3C2)C1 (as salt: oxalate) [Compound 28b, 1-[1-[2-(Indan-2-yl)ethyl]-1,2,3,6-tetrahydropyridin-4-yl]-1H-indole]	176 to 178 °C	
c1ccc2c(c1)CC(CCN1CCN(c3ccc4[nH]ccc4c3)CC1)C2 (as salt: hydrochloride) [Compound 25b, 5-[4-[2-(Indan-2-yl)ethyl]piperazin-1-yl]-1H-indole]	251 to 253 °C	
CC(=O)Nc1ccc2c(c1)C(CCN1CC=C(c3c[nH]c4cc(Cl)ccc34)CC1)CC2 (centres unmarked) (as salt: oxalate) [Compound 18c]	153 to 155 °C	
Clc1cccc2c(C3CCN(CC4Cc5ccccc5C4)CC3)c[nH]c12 (as salt: oxalate) [Compound 21c, 7-Chloro-3-[1-(indan-2-ylmethyl)piperidin-4-yl]-1H-indole]	218 to 219 °C	
c1ccc2c(c1)CC(CN1CCN(c3ccc4[nH]ccc4c3)CC1)C2 (as salt: hydrochloride) [Compound 11f, 5-[4-(Indan-2-yl)methylpiperazin-1-yl]-1H-indole]	263 to 265 °C	
COc1cc2c(cc1OC)CC(CN1CCC(c3c[nH]c4cc(Cl)ccc34)CC1)C2	68 to 79 °C	
CC(=O)N1CC(CCN2CC=C(c3c[nH]c4cc(Cl)ccc34)CC2)c2ccccc21 (centres unmarked) [Compound 20a, 3-[1-[2-(1-Acetyl-2,3-dihydro-1H-indol-3-yl)ethyl]-1,2,3,6-tetrahydropyridin-4-yl]-6-chloro-1H-indole]		3.1 nM
Clc1ccc2c(C3CCN(CCCCC4CCc5ccccc54)CC3)c[nH]c2c1 (centres unmarked) [Compound 8f, 6-Chloro-3-[1-[4-(indan-1-yl)butan-1-yl)-piperidin-4-yl]-1H-indole]		12 nM
Clc1ccc2c(ccn2C2CCN(CCC3Cc4ccccc4C3)CC2)c1 [Compound 29a, 5-Chloro-1-[1-[2-(indan-2-yl)ethyl]piperidin-4-yl]-1H-indole]		6.9 nM
CC(=O)N1CC(CCCN2CC=C(c3c[nH]c4cc(Cl)ccc34)CC2)c2ccccc21 (centres unmarked) (as salt: oxalate) [Compound 20k, 3-[1-[3-(1-Acetyl-2,3-dihydro-1H-indol-3-yl)propyl]-1,2,3,6-tetrahydropyridin-4-yl]-6-chloro-1H-indole]	112 to 115 °C	
Clc1ccc2c(C3=CCN(CCCC4CCc5ccccc54)CC3)c[nH]c2c1 (centres unmarked) [Compound 8g, 6-Chloro-3-[1-[3-(indan-1-yl)propan-1-yl]-1,2,3,6-tetrahydropyridin-4-yl]-1H-indole]		14 nM
CC(=O)Nc1ccc2c(c1)CC(CN1CC=C(c3c[nH]c4cc(Cl)ccc34)CC1)C2 (centres unmarked) (as salt: oxalate)	201 to 203 °C	
CC(=O)Nc1ccc2c(c1)CC(CN1CCC(c3c[nH]c4cc(Cl)ccc34)CC1)C2 (centres unmarked)	151 to 152 °C	
Clc1ccc2c(C3=CCN(CCCCC4CCc5ccccc54)CC3)c[nH]c2c1 (centres unmarked) [Compound 8h]		34 nM
Clc1cccc2c(C3CCN(CC4Cc5ccccc5C4)CC3)c[nH]c12 [Compound 21c, 7-Chloro-3-[1-(indan-2-ylmethyl)piperidin-4-yl]-1H-indole]		1.8 nM
